≈ marks a conversion by molar mass, not a printed value.
Columns and labels:
Type in all cases: in vivo
[1] = tested on: adult female houseflies (Musca domestica); test: Housefly mortality on treated filter papers (Examples 32-40); settings: 100 milligrams per square foot, after 24 hours
Excerpt: 9 centimeter diameter filter papers treated with aqueous acetone solutions of each of the compounds
at rates equivalent to 100 milligrams per square foot (100 mgm./0.09 m^2.) of active ingredient were placed in 9 centimeter diameter Petri dishes. Batches of adult female houseflies (Musca domestica) lightly anaesthetised with carbon dioxide were then introduced into the dishes and a glass lid placed over each.

[2] = tested on: first instar larvae of the sheep blowfly (Lucilia sericata); test: Sheep blowfly larvae on treated cotton wool pads (Examples 53-60); settings: 1/2 ml. of acetone solution on cotton wool pads, after 24 hours
Experimental: Cylindrical pads of cotton wool, approximate diameter 1 cm., length 2 cms. were treated with 1/2 ml. of acetone solutions of the following carbamates:
After leaving for 12 hours to dry, the pads were treated with 1 ml. of sheep blood serum and infested with 20 first instar larvae of the sheep blowfly (Lucilia sericata). After 24 hours, the blowflies were examined and found to be all dead; insects similarly infested on untreated pads were unaffected.

[3] = tested on: second instar larvae of the cabbage white butterfly (Pieris brassicae); test: Cabbage white butterfly larvae on treated cabbage leaf discs (Examples 41-48); settings: 10, 5, 1, 0.5 and 0.25 pounds per acre, three replications, after 48 hours
Excerpt: 7 centimeter diameter circular discs of cabbage leaves were painted with 1 milliliter aqueous acetone solutions of each of the following compounds:
in each case at concentrations equivalent to leaf applications of 10, 5, 1, 0.5 and 0.25 pounds per acre (11.2, 5.6, 1.12, 0.56 and 0.28 kg./hectare) of active ingredient. When the deposit on the leaf discs had dried, each leaf disc was placed in a 9 centimeter diameter Petri dish, infested with ten second instar larvae of the cabbage white butterfly (Pieris brassicae) and covered with a glass lid. Three replications were made with each compound at each concentration level.

[4] = tested on: adult female yellow fever mosquitos (Aedes aegypti); test: Yellow fever mosquitos in coated glass tubes (Examples 61-64); settings: 3 mg of active ingredient per square foot, after 24 hours
Experimental: Acetone solutions of the compounds
were applied to the inside walls of glass tubes 9 cm high by 4.5 cm diameter so that after the acetone had evaporated a coating equivalent to 3 mg of active ingredient per square foot remained. Batches of adult female yellow fever mosquitos (Aedes aegypti) were then caged in the tubes.

[5] = tested on: first stage larvae of the cattle tick, Boophilus microplus; test: Cattle tick larvae in treated filter paper packets (Example 65); settings: 30 parts per million, 25° C, 24 hours
Experimental: Filter papers, diameter 9 cm., were treated with 1 ml. of acetone solutions containing 30 parts per million of 2,2-dimethyl-1,3-benzodioxol-4-yl N-methylcarbamate or 7-chloro-2,2-dimethyl-1,3-benzodioxol-4-yl N-methylcarbamate. When they had dried, they were folded into quadrant shaped packets, infested with 20 first stage larvae of the cattle tick, Boophilus microplus, closed with a metal clip and kept at 25° C for 24 hours.

[6] = tested on: adult apterous vetch aphids (Megoura viciae); test: Vetch aphids on sprayed field beans (Examples 49 and 50); settings: 100 parts per million, 50 gallons per acre, 24 hours
Excerpt: Aqueous suspensions containing 100 parts per million of 2,2-dimethyl-1,3-benzodioxol-4-yl N-methylcarbamate and 2,2-dimethyl-1,3-benzodioxol-4-yl N-acetyl-N-methylcarbamate were sprayed at a rate equivalent to 50 gallons per acre (585 liters per hectare) on young field beans (Vicia faba) infested with adult apterous vetch aphids (Megoura viciae). After treatment the plants were enclosed in glass cages with gauze tops for ventilation.

[7] = tested on: adult female houseflies (Musca domestica); test: LC50 against adult female houseflies on filter papers (Example 70)
Experimental: (§1) If complete kill was obtained at the highest dosage rate, the test was repeated using a logarithmically reducing dose regime until less than 50% mortality was recorded. The LC50 was then calculated from the line of best fit from the data plotted on log/provit analysis paper.
(§2) Similarly LC50 values were obtained against various pests as described in Examples 70-73 where, however, the LC50 values are abbreviated on a 0-6 scale where
LC50 values were obtained for each of Compounds 1, 2, 3, 4, 5 and 6 against adult female houseflies (Musca domestica), of the order Diptera. The tests were carried out by adding acetone solutions of the compounds to 9 cm diameter filter papers in the base of 9 cm diameter crystallising dishes, placing the houseflies in the dishes after the acetone had evaporated, closing the dishes with Petri dish lids and counting the mortality after 24 hours. The highest dosage rate employed was 1000 mg/ft^2 (10.65 g/m^2).

[8] = tested on: 2nd stage nymph of the German cockroach (Blattella germanica); test: LC50 against German cockroach nymphs in treated glass tubes (Example 69)
Experimental: Compounds 2 and 4 and also 2,2-dimethyl-1,3- benzodioxol-4-yl N-methylcarbamate(compound 5) and 2,2-dimethyl-1,3-benzodioxol-4-yl N-acetyl-N-methylcarbamate (compound 6) were tested for activity against the 2nd stage nymph of the German cockroach (Blattella germanica), of the order Orthoptera, by treating the walls of glass tubes (9.0 cm high × 4.5 cm diameter) with acetone solutions of the compounds and after the acetone had evaporated caging the insects in the tubes for 48 hours. The highest dosage rate employed was 50 mg/ft^2 (532 mg/m^2).
as §1
The LC50 values are abbreviated on a 0-6 scale where

[9] = tested on: larvae of the sheep maggot fly (Lucilia sericata); test: LC50 against sheep maggot fly larvae on dental rolls (Example 71)
Experimental: as §1, §2
Similarly, LC50 values were obtained for each of Compounds 1, 2, 3, 4, 5 and 6 against larvae of the sheep maggot fly (Lucilia sericata), of the order Diptera. The tests were carried out by placing newly hatched larvae on dental rolls contained in glass vials and soaked with 1 ml of blood serum containing the compound. The mortality was assessed after 24 hours. The highest dosage rate employed was 1000 ppm.

[10] = tested on: adult red spider mites (Tetranychus telarius); test: LC50 against adult red spider mites on sprayed French beans (Example 73); settings: 48 h, read-out: LC50 value
Experimental: as §1, §2
Similarly, LC50 values were obtained for each of Compounds 1, 2, 4, 5 and 6 against adult red spider mites (Tetranychus telarius), of the order Acarina. The tests were carried out by spraying infected French beans with a 50% acetone water solution of the compound, containing 500 ppm of Lissapol NX as a wetting agent, and recording the mortality after 48 hours. The highest dosage rate employed was 1000 ppm which is equivalent to 10 lb/acre (11.20 kg/ha).

[11] = tested on: German cockroaches (Blattella germanica); test: Persistency against German cockroaches on treated glass plates (Example 74); settings: 100 mg/ft^2 (1.065 g/m^2), 2nd stage nymphs, 7 day intervals until less than 50% mortality
Experimental: Persistency was measured against German cockroaches (Blattella germanica), or the order Orthoptera, by treating glass plates with acetone solutions of the compunds listed below to produce a deposit equivalent to 100 mg/ft^2 (1.065 g/m^2), and caging 2nd stage nymph cockroaches on these surfaces for 48 hours at 7 day intervals until less than 50% mortality was recorded.

[12] = tested on: yellow fever mosquito (Aedes aegypti); test: Persistency against yellow fever mosquito on treated glass plates (Example 75); settings: 100 mg/ft^2 (1.065 g/m^2), adult female mosquitos, 7 day intervals until less than 50% mortality
Experimental: Persistency was measured against yellow fever mosquito (Aedes aegypti), of the order Diptera, by treating glass plates with acetone solutions of the compounds listed below to produce a deposit equivalent to 100 mg/ft^2 (1.065 g/m^2), and caging adult female mosquitos on these surfaces for 24 hours at 7 day intervals until less than 50% mortality was recorded.

With `CCCC(=O)N(C)C(=O)Oc1cccc2c1OCO2` [1,3-benzodioxol-4-yl N-butyryl-N-methylcarbamate] the mortality of houseflies [1] was “all found to be dead”.

With `CNC(=O)Oc1cccc2c1OCO2` [1,3-benzodioxol-4-yl N-methylcarbamate] the mortality of houseflies [1] was “all found to be dead”.

`CC(=O)N(C)C(=O)Oc1cc(C)cc2c1OC(C)(C)O2` [2,2,6-trimethyl-1,3-benzodioxol-4-yl N-acetyl-N-methylcarbamate] was tested, and the mortality of houseflies [1] was “all found to be dead”.

With `CNC(=O)Oc1cc(C)cc2c1OC(C)(C)O2` [2,2,6-trimethyl-1,3-benzodioxol-4-yl N-methylcarbamate] the “mortality of sheep blowfly larvae” value [2] was “all dead”.

`CNC(=O)Oc1ccc(C)c2c1OC(C)(C)O2` [2,2,7-trimethyl-1,3-benzodioxol-4-yl N-methylcarbamate] was tested, and the “mortality of cabbage white butterfly larvae” value [3] was “all found to be dead” and the “mortality of sheep blowfly larvae” value [2] was “all dead”.

In the case of `CCC1(CC)Oc2cccc(OC(=O)N(C)C(C)=O)c2O1` [2,2-diethyl-1,3-benzodioxol-4-yl N-acetyl-N-methylcarbamate], the “mortality of yellow fever mosquitos” value [4] is reported as “all found to be dead”.

With `CCC1(CC)Oc2cccc(OC(=O)NC)c2O1` [2,2-diethyl-1,3-benzodioxol-4-yl N-methylcarbamate] the “mortality of sheep blowfly larvae” value [2] was “all dead”.

`C=CCN(C(C)=O)C(=O)Oc1cccc2c1OC(C)(C)O2` [2,2-dimethyl-1,3-benzodioxol-4-yl N-acetyl-N-allylcarbamate] was tested, and the mortality of houseflies [1] was “all found to be dead”.

With `C#CCN(C(C)=O)C(=O)Oc1cccc2c1OC(C)(C)O2` [2,2-dimethyl-1,3-benzodioxol-4-yl N-acetyl-N-propargylcarbamate] the “mortality of cabbage white butterfly larvae” value [3] was “all found to be dead”.

`C=CCNC(=O)Oc1cccc2c1OC(C)(C)O2` [2,2-dimethyl-1,3-benzodioxol-4-yl N-allylcarbamate] was tested, and the “mortality of cabbage white butterfly larvae” value [3] was “all found to be dead”.

For `C#CCNC(=O)Oc1cccc2c1OC(C)(C)O2` [2,2-dimethyl-1,3-benzodioxol-4-yl N-propargylcarbamate], the “mortality of cabbage white butterfly larvae” value [3] was “all found to be dead”.

With `CC(=O)N(C)C(=O)Oc1cccc2c1OC1(CCCCC1)O2` [2,2-pentamethylene-1,3-benzodioxol-4-yl N-acetyl-N-methylcarbamate] the “mortality of yellow fever mosquitos” value [4] was “all found to be dead”.

In the case of `CC(=O)N(C)C(=O)Oc1cccc2c1OC1(CCCC1)O2` [2,2-tetramethylene-1,3-benzodioxol-4-yl N-acetyl-N-methylcarbamate], the “mortality of yellow fever mosquitos” value [4] is reported as “all found to be dead”.

With `CNC(=O)Oc1cccc2c1OC1(CCCC1)O2` [2,2-tetramethylene-1,3-benzodioxol-4-yl N-methylcarbamate] the “mortality of cabbage white butterfly larvae” value [3] was “all found to be dead”.

`CCC1(C)Oc2cccc(OC(=O)NC)c2O1` (centres unmarked) [2-ethyl-2-methyl-1,3-benzodioxol-4-yl N-methylcarbamate] was tested, and the “mortality of cabbage white butterfly larvae” value [3] was “all found to be dead” and the “mortality of sheep blowfly larvae” value [2] was “all dead”.

In the case of `CC(=O)N(C)C(=O)Oc1cccc2c1OC(C)O2` (centres unmarked) [2-methyl-1,3-benzodioxol-4-yl N-acetyl-N-methylcarbamate], the mortality of houseflies [1] is reported as “all found to be dead”.

In the case of `CNC(=O)Oc1cccc2c1OC(C)O2` (centres unmarked) [2-methyl-1,3-benzodioxol-4-yl N-methylcarbamate], the “mortality of sheep blowfly larvae” value [2] is reported as “all dead”.

`CC(=O)N(C)C(=O)Oc1cccc2c1OC(C)(C(C)(C)C)O2` (centres unmarked) [2-methyl-2-t-butyl-1,3-benzodioxol-4-yl N-acetyl-N-methylcarbamate] was tested, and the “mortality of yellow fever mosquitos” value [4] was “all found to be dead”.

`CNC(=O)Oc1cccc2c1OC(C)(C(C)(C)C)O2` (centres unmarked) [2-tert-butyl-2-methyl-1,3-benzodioxol-4-yl N-methylcarbamate] was tested, and the “mortality of sheep blowfly larvae” value [2] was “all dead”.

For `CNC(=O)Oc1ccc(Cl)c2c1OC(C)(C)O2` [7-chloro-2,2-dimethyl-1,3-benzodioxol-4-yl N-methylcarbamate], the “mortality of cattle tick larvae” value [5] was “all the ticks in the treated filter papers were dead”.

`CCc1ccc(OC(=O)NC)c2c1OC(C)(C)O2` [7-ethyl-2,2-dimethyl-1,3-benzodioxol-4-yl N-methylcarbamate] was tested, and the “mortality of sheep blowfly larvae” value [2] was “all dead”.

`CC(=O)N(C)C(=O)Oc1cccc2c1OC(C)(C)O2` [Compound 6, 2,2-dimethyl-1,3-benzodioxol-4-yl N-acetyl-N-methylcarbamate] was tested, and the “kill of vetch aphids” value [6] was “complete kill of the aphids in 24 hours”, the mortality of houseflies [1] was “all found to be dead” and the LC50 value ([7]; adult female houseflies, 24 hours, 0-6 scale (mg/ft^2)) was 3 (30-99 mg/ft^2 (0.32 - 1.06 g/m^2)). The “activity against houseflies (in words)” value ([7]; compared with compound 5) was “worse”, the “mortality of cabbage white butterfly larvae” value [3] was “all found to be dead” and the LC50 value ([8]; 2nd stage nymph German cockroach, 48 hours, 0-6 scale) was 1 (15-50 mg/ft^2 (160-532 mg/m^2)). The “activity against cockroaches (in words)” value ([8]; cockroaches) was “low activity against cockroaches”, the LC50 ([9]; Lucilia sericata, 24 h, read-out: LC50 value) was 30 to 99 µg/mL (≈ 113 to 373 µM) and the “activity against sheep maggot fly (in words)” value ([9]; compared with compound 5) was “worse”. For the same molecule, the LC50 [10] was 100 to 299 µg/mL (≈ 377 to 1130 µM), the Persistency [11] was 8 to 14 days and the Persistency [12] was 15 to 21 days.
